# Reference: US20250296939A1, “BENZOTHIOPHENE COMPOUND” (Kyoto Pharmaceutical Industries, Ltd., priority 2022, published 2025)
# pIC50: −log10 of the molar value.
# Tests used:
# [1] = biological target: GST-fused human Keap1 (amino acid residues: 325-642) protein (Homo sapiens (Human), UniProt Q14145); experiment: FP assay (in vitro): inhibition of binding between Nrf2 and Keap1 by fluorescence polarization; settings: 20 nM GST-fused human Keap1, 10 nM FITC-labeled Nrf2 peptide, 2 hr at room temperature
# Chain of GST-fused human Keap1 (amino acid residues: 325-642) protein (Q14145 325-624 limits assumed): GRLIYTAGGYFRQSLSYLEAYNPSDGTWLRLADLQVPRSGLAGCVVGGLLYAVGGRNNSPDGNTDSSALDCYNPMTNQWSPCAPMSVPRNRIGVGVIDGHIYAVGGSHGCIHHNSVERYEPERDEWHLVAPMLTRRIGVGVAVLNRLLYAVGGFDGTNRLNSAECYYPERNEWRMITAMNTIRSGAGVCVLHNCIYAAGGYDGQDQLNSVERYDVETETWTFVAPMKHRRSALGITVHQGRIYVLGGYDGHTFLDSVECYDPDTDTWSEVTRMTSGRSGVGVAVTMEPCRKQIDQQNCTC
# [2] = system: NQO1 activity in Hepa1c1c7 cells; experiment: NAD(P)H: quinone oxidoreductase-1 (NQO1) enzyme induction assay (in vitro); format: cell-based, mouse; settings: Mus musculus, Hepa-1c1c7, NQO1 activity upon addition of 400 nM of test compound, about 48 hr, ratio from the base without the compound
# How it was run: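 Mouse Hepa1c1c7 hepatoma cells were treated with 400 nM compound for about 48 h, then lysed with digitonin/EDTA. NQO1 activity was measured as menadione-mediated MTT reduction with a G6P/G6PDH NADPH-regenerating system, stopped with dicoumarol, and read at A610. Values are the activity ratio versus untreated base wells.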
# [3] = system: NQO1 activity in rat kidney; experiment: NQO1 activity assay in rat kidney (single administration); format: in vivo; settings: SD rats (male), oral 3 mg/kg single administration; for NQO1 activity 24 hr later: 24 hr after administration; for NQO1 activity 48 hr later: 48 hr after administration
# Description: Experimental Example 3: NQO1 Activity Assay in Rat Kidney (Single Administration)
# The test compound solution for administration was prepared by dissolving or suspending the test compound in 0.5 w/v % methylcellulose solution.
# The test compound was administered orally (3 mg/kg, 2 mL/kg) to SD rats (male, Japan SLC). The solvent group was used as a control group. The test compound group was anesthetized with isoflurane 24 and 48 hr after administration, and the control group was anesthetized with isoflurane 24 hr after administration, and the rats were euthanized by abdominal aortotomy with blood release. The right kidney was immediately removed, and the renal cortex and medullary portion of the kidney were cut out for measurement of NQO1 activity.
# Homogenization buffer (10 mM Tris-HCl, 250 mM sucrose, pH 7.4) and assay buffer (25 mM Tris-HCl, 0.7 mg/mL BSA, pH 7.4) were prepared.
# 1 mL of homogenization buffer was added to the collected kidney samples, and the organs were homogenized uniformly in ice using a Polytron homogenizer (PHYSCOTRON, Microtec Co. Ltd.) or TissueLyser II (QIAGEN). Homogenized samples were centrifuged (MX-305, TOMY) at 9000×g for 20 minutes at 4° C. The supernatant was then scalped with homogenization buffer to approximately 2 ml and ultracentrifuged (centrifuge; OptimaL-100XP, rotor; 50.4 Ti, Beckman Coulter) at 100,000×g for 60 min at 4° C. The protein concentration of the supernatant was measured with the Protein Assay BCA kit (#06385-00, Nacalai Tesque), and samples were diluted to 5 μg protein/30 μL with homogenization buffer. 2,6-Dichlorophenolindophenol (DCPIP) reaction buffer (assay buffer with 200 μM NADPH and 160 μM DCPIP, containing 1/1000 volume of DMSO or 20 μM dicoumarol DMSO solution) was prepared immediately before the measurement.
# The 230 μL of each concentration of calibration solution was added to a 96-well plate (CORNING, 9017). To 30 μL of the sample solution was added 200 μL of DMSO-containing DCPIP reaction buffer or dicoumarol-containing DCPIP reaction buffer. The absorbance at 600 nm was immediately measured on a SpectraMax PLUS384 (Molecular devices) at 1 minute intervals for 10 minutes. […] A regression line was used to create the calibration curve.
# The difference between the DCPIP decrease in the wells with DMSO-containing DCPIP reaction buffer and the DCPIP decrease in the wells with dicoumarol-containing DCPIP reaction buffer was divided by the amount of protein (mg) and time (min) to obtain NQO1 activity (nmol/mg/min). In Table 4 below, the NQO1 activity of the test compound-administered groups is expressed as a percentage of the control group.
SMILES,pIC50 [1],fold induction at 0.4 µM [2],NQO1 activity 24 hr later [3],NQO1 activity 48 hr later [3]
"Cc1c([C@H](CC(=O)O)c2cc(CN3Cc4nc(O)ccc4O[C@H](C4CC4)C3)c3sccc3c2)ccc2c1nnn2C [Example 5, (3R)-3-(7-{[(2R)-2-Cyclopropyl-7-hydroxy-2,3-dihydropyrido[2,3-f][1,4]oxazepin-4(5H)-yl]methyl}-1-benzothiophen-5-yl)-3-(1,4-dimethyl-1H-benzotriazol-5-yl)propanoic acid]",7.52 to 8.00,> 5,9.4 percentage of the control group,10.9 percentage of the control group
"CC[C@@H]1CN(Cc2cc([C@@H](c3ccc4c(nnn4C)c3C)C(C)(C)C(=O)O)cc3ccsc23)Cc2nc(O)ccc2O1 [Example 11, (3S)-3-(1,4-Dimethyl-1H-benzotriazol-5-yl)-3-(7-{[(2R)-2-ethyl-7-hydroxy-2,3-dihydropyrido[2,3-f][1,4]oxazepin-4(5H)-yl]methyl}-1-benzothiophen-5-yl)-2,2-dimethylpropanoic acid]",≥ 8.00,> 5,9.3 percentage of the control group,11.0 percentage of the control group
"Cc1c([C@H](c2cc(CN3Cc4nc(O)ccc4OC4(CC4)C3)c3sccc3c2)C(C)(C)C(=O)O)ccc2c1nnn2C [Example 13, (3S)-3-(1,4-Dimethyl-1H-benzotriazol-5-yl)-3-{7-[(7′-hydroxy-3′H-spiro[cyclopropane-1,2′-pyrido[2,3-f][1,4]oxazepin]-4′(5′H)-yl)methyl]-1-benzothiophen-5-yl}-2,2-dimethylpropanoic acid]",7.52 to 8.00,> 5,6.5 percentage of the control group,11.7 percentage of the control group
"CC[C@H]1Cc2ccc(O)nc2CN(Cc2cc([C@H](CC(=O)O)c3cc(Cl)c4c(nnn4C)c3C)cc3ccsc23)C1 [Example 85, (3S)-3-(7-Chloro-1,4-dimethyl-1H-benzotriazol-5-yl)-3-(7-{[(6S)-6-ethyl-2-hydroxy-5,6,7,9-tetrahydro-8H-pyrido[2,3-c]azepin-8-yl]methyl}-1-benzothiophen-5-yl)propanoic acid]",≥ 8.00,> 5,–,–
"CC[C@H]1Cc2ccc(O)nc2CN(Cc2cc([C@H](CC(=O)O)c3cc(C)c4c(nnn4C)c3C)cc3ccsc23)C1 [Example 86, (3S)-3-(7-{[(6S)-6-Ethyl-2-hydroxy-5,6,7,9-tetrahydro-8H-pyrido[2,3-c]azepin-8-yl]methyl}-1-benzothiophen-5-yl)-3-(1,4,7-trimethyl-1H-benzotriazol-5-yl)propanoic acid]",≥ 8.00,> 5,–,–
"CC[C@H]1Cc2ccc(O)nc2CN(Cc2cc([C@@H](CC(=O)O)c3cc(C)c4c(nnn4C)c3C)cc3ccsc23)C1 [Example 87, (3R)-3-(7-{[(6S)-6-Ethyl-2-hydroxy-5,6,7,9-tetrahydro-8H-pyrido[2,3-c]azepin-8-yl]methyl}-1-benzothiophen-5-yl)-3-(1,4,7-trimethyl-1H-benzotriazol-5-yl)propanoic acid]",≥ 8.00,> 5,–,–
"CC[C@@H]1CN(Cc2cc(C(CC(=O)O)c3ccc4c(nnn4CC)c3C)cc3ccsc23)Cc2nc(C)ccc2O1 (stereo partly drawn) [Example 92, 3-(1-Ethyl-4-methyl-1H-benzotriazol-5-yl)-3-(7-{[(2R)-2-ethyl-7-methyl-2,3-dihydropyrido[2,3-f][1,4]oxazepin-4(5H)-yl]methyl}-1-benzothiophen-5-yl)propanoic acid]",6.52 to 7.52,> 5,–,–
"CC[C@@H]1CN(Cc2cc(C(CC(=O)O)c3ccc4c(nnn4C)c3C)cc3ccsc23)Cc2nc(C(F)(F)F)ccc2O1 (stereo partly drawn) [Example 93, 3-(1,4-Dimethyl-1H-benzotriazol-5-yl)-3-(7-{[(2R)-2-ethyl-7-(trifluoromethyl)-2,3-dihydropyrido[2,3-f][1,4]oxazepin-4(5H)-yl]methyl}-1-benzothiophen-5-yl)propanoic acid]",≥ 8.00,> 5,–,–
